Data: article PMC10739871, “Structural insights into the regulation, ligand recognition, and oligomerization of bacterial STING” (Nature Communications, 2023)
Values joined by “and” are separate entries in the source; they are usually repeats but may differ in a detail not shown here. Equal entries are not always repeated. Where two headings read alike, the source gives them in different places.

Experiments:
[1] = test system: ElTIR-STING; experiment: NAD+ cleavage activity assay, ElTIR-STING; format: biochemical, Epilithonimonas lactis; conditions: for ΔRFU after 10 mins (single replicates): 500 μM ε-NAD; for ΔRFU after 10 mins, Average: n = 3
Experimental: (§1) The NAD^+ cleavage activity of the N-terminal TIR domain of full-length TIR-STING proteins were accessed using the previously described protocol. Briefly, 100 μl reaction mixture containing ligand (cGG or cAA) at the indicated concentration and 500 μM ε-NAD (Product No. N2630, Sigma-Aldrich) in the assay buffer (20 mM HEPES pH 7.5, 100 mM KCl) was pre-incubated at room temperature. Tested TIR-STING protein (0.5–1 μM) was then added to start the reaction. The fluorescence signal was continuously monitored for 1 hour at an emission wavelength of 410 nm with excitation at 300 nm using Synergy H1 microplate reader (BioTek). The changes of relative fluorescence units at different time points were recorded.

[2] = test system: E. coli cells overexpressing ElTIR-STING; experiment: E. coli toxicity assay (growth curves), ElTIR-STING with or without cAA; format: cell-based, E. coli BL21(DE3); conditions: for OD600: replicates 1-3
Experimental: To access the cytotoxicity of TIR-STING proteins and their variants, E. coli BL21(DE3) cells which produce endogenous cGG were used. The cells carrying expression plasmid pET21 or pET24 with indicated TIR-STING were first inoculated into 3-ml LB medium and incubated at 37 °C with shaking overnight. The overnight culture was then diluted by fresh LB medium to an optical density at 600 nm (O.D.600) of ~0.1-0.2, followed by addition of 0.5 mM IPTG and 30 mM nicotinamide to induce the overexpression of tested proteins. […] To access the anti-phage ability of full-length LrTIR-STING, E. coli BL21(DE3) cells containing empty vector, pET24_LrTIR-STING or pET24_LrTIR-STING lid-to-loop mutant was first cultivated at 37 °C overnight and then diluted with fresh medium to O.D.600 of 0.1-0.2, followed by 0.5 mM IPTG induction and infected with T2 phage at a multiplicity of infection (MOI) of 10 or 0.01. The E. coli BL21(DE3) cells without IPTG induction and T2 phage infection was served as control.

[3] = test system: T2 phage infection of E. coli cells overexpressing ElTIR-STING; format: cell-based, E. coli BL21(DE3) / phage T2; conditions: for OD600: replicates 1-3
[4] = test system: ElTIR-STING; experiment: Gel filtration / SEC-MALS of ElTIR-STING with cAA; parameters: species or system Epilithonimonas lactis
Experimental: Purified protein samples for SEC-MALS analysis were diluted in buffer containing 50 mM Tris pH 8.0, 200 mM NaCl, 1 mM TCEP to a final concentration of 1 mg/ml. The protein sample was incubated with 0.11 mM cyclic di-nucleotide at 4 °C for 1 hour, followed by centrifugation at 4 °C, 18,000x g for 30 mins to remove precipitated proteins. The final protein sample was analyzed using GE AKTA UPC Purifier FPLC system coupled to a Wyatt Optilab T-rex refractive index detector and a Wyatt miniDAWN TREOS to obtain O.D.280, molar mass and refractive index (dRI).

[5] = target: ElSTING; experiment: ITC binding of cAA to ElSTING; parameters: species or system Epilithonimonas lactis; conditions: ITC (Supplementary Fig. 5)
Experimental: (§2) ITC experiments were performed at 25 °C using nano-ITC (TA Instruments). Purified RiSTING and ElSTING were exchanged into assay buffer containing 20 mM Tris pH 8.0, 150 mM NaCl. 10 mM stock of cGG (Item No. 17144, Cayman Chemical) and cAA (Item No. 17753, Cayman Chemical) were prepared by dissolving in the same buffer. 20 injections of ligand (0.9-1.2 mM) were sequentially titrated to tested STING protein solution (30-100 μM) with a stirring speed of 300 rpm. Data were fit to “independent” model to derive ΔH, ΔS, and Kd values using NanoAnalyze v3.12.5 (TA Instruments).

[6] = test system: RiSTING; experiment: Dynamic light scattering of RiSTING with or without cGG; parameters: species or system Riemerella anatipestifer; conditions: two molar excesses of cGG; 84% of particles; 9.0 nm without cGG
Experimental: The DLS experiments were performed using Zetasizer Nano ZS90 (Malvern instruments). Briefly, protein samples containing 1 mg/ml RiSTING in the presence or absence of 2-fold molar excess of cGG were prepared and degassed. Polydispersity index (PDI) and globule size were examined at 25 °C.

[7] = target: RiSTING; experiment: ITC binding of cGG to RiSTING; parameters: species or system Riemerella anatipestifer
Experimental: as §2

[8] = test system: MyTIR-STING; experiment: NAD+ cleavage activity assay, MyTIR-STING (control); format: biochemical; conditions: 1 μM cGG
Experimental: as §1

[9] = target: oligomerization mutant ElTIR-STING^D175R,S179R (Epilithonimonas lactis DSM 19921); experiment: SEC; gel-filtration analysis of full-length ElTIR-STING in the absence of cAA
[10] = target: oligomerization mutant ElTIR-STING^D175R,S179R (Epilithonimonas lactis DSM 19921); experiment: SEC; gel-filtration analysis of full-length ElTIR-STING in the presence of cAA at 2-fold molar excess

Molecule: Nc1ncnc2c1ncn2[C@@H]1O[C@@H]2COP(=O)(O)O[C@H]3[C@@H](O)[C@H](n4cnc5c(N)ncnc54)O[C@@H]3COP(=O)(O)O[C@H]2[C@H]1O [cAA, 3′3′-cyclic di-AMP]
- ΔRFU after 10 mins (single replicates) ([1]; 1 μM cAA): 3735 RFU and 3756 RFU and 9276 RFU
- ΔRFU after 10 mins, Average ([1]; 1 μM cAA): 5589 RFU
- ΔRFU after 10 mins (single replicates) ([1]; 10 μM cAA): 3586 RFU and 4211 RFU and 4642 RFU
- ΔRFU after 10 mins, Average ([1]; 10 μM cAA): 4146 RFU
- ΔRFU after 10 mins (single replicates) ([1]; 100 μM cAA): 4282 RFU and 3852 RFU and 4467 RFU
- ΔRFU after 10 mins, Average ([1]; 100 μM cAA): 4200 RFU
- activation of NAD+ cleavage activity (in words) ([1]; full-length ElTIR-STING, up to 100 μM cAA): could not activate
- OD600 ([2]; time 0 min, 300 μM cAA (Fig. 4b legend)): 0.028 (2×) and 0.026
- OD600 ([2]; time 20 min, 300 μM cAA): 0.036 and 0.037 and 0.034
- OD600 ([2]; time 40 min, 300 μM cAA): 0.056 (2×) and 0.054
- OD600 ([2]; time 60 min, 300 μM cAA): 0.083 (2×) and 0.079
- OD600 ([2]; time 80 min, 300 μM cAA): 0.125 and 0.124 and 0.119
- OD600 ([2]; time 100 min, 300 μM cAA): 0.186 and 0.183 and 0.175
- OD600 ([2]; time 120 min, 300 μM cAA): 0.252 (2×) and 0.244
- OD600 ([2]; time 140 min, 300 μM cAA): 0.33 and 0.331 and 0.326
- OD600 ([2]; time 160 min, 300 μM cAA): 0.408 (2×) and 0.41
- OD600 ([2]; time 180 min, 300 μM cAA): 0.503 and 0.497 and 0.506
- OD600 ([2]; time 200 min, 300 μM cAA): 0.563 and 0.565 and 0.575
- OD600 ([2]; time 220 min, 300 μM cAA): 0.612 and 0.615 and 0.627
- OD600 ([2]; time 240 min, 300 μM cAA): 0.66 (2×) and 0.677
- OD600 ([2]; time 260 min, 300 μM cAA): 0.7 and 0.704 and 0.715
- OD600 ([2]; time 280 min, 300 μM cAA): 0.73 and 0.732 and 0.743
- OD600 ([2]; time 300 min, 300 μM cAA): 0.765 and 0.764 and 0.784
- OD600 ([2]; time 320 min, 300 μM cAA): 0.798 and 0.804 and 0.81
- OD600 ([2]; time 340 min, 300 μM cAA): 0.822 and 0.831 and 0.839
- OD600 ([2]; time 360 min, 300 μM cAA): 0.854 and 0.863 and 0.865
- OD600 ([2]; time 380 min, 300 μM cAA): 0.875 and 0.886 and 0.885
- OD600 ([2]; time 400 min, 300 μM cAA): 0.892 and 0.904 and 0.902
- OD600 ([2]; time 420 min, 300 μM cAA): 0.901 and 0.917 and 0.912
- OD600 ([2]; time 440 min, 300 μM cAA): 0.911 and 0.927 and 0.92
- OD600 ([2]; time 460 min, 300 μM cAA): 0.919 and 0.935 and 0.929
- OD600 ([2]; time 480 min, 300 μM cAA): 0.926 and 0.943 and 0.935
- OD600 ([2]; time 500 min, 300 μM cAA): 0.933 and 0.952 and 0.942
- effect on growth of E. coli expressing ElTIR-STING (in words) ([2]; with vs without addition of cAA and vs empty vector): no differences
- resistance to phage infection (in words) ([3]; 100 μM cAA in growth medium, T2 phage): did not confer resistance
- OD600 ([3]; MOI = 0.01, time 30 min): 0.015 and 0.017 and 0.016
- OD600 ([3]; MOI = 0.01, time 45 min): 0.021 and 0.024 and 0.023
- OD600 ([3]; MOI = 0.01, time 60 min): 0.030 (2×) and 0.032
- OD600 ([3]; MOI = 0.01, time 75 min): 0.036 (2×) and 0.038
- OD600 ([3]; MOI = 0.01, time 90 min): 0.040 (2×) and 0.043
- OD600 ([3]; MOI = 0.01, time 105 min): 0.042 and 0.045 and 0.041
- OD600 ([3]; MOI = 0.01, time 120 min): 0.046 (2×) and 0.050
- OD600 ([3]; MOI = 0.01, time 135 min): 0.050 and 0.053 and 0.049
- OD600 ([3]; MOI = 0.01, time 150 min): 0.054 and 0.057 and 0.062
- OD600 ([3]; MOI = 0.01, time 165 min): 0.058 and 0.060 and 0.056
- OD600 ([3]; MOI = 0.01, time 180 min): 0.061 and 0.064 and 0.058
- OD600 ([3]; MOI = 1, time 30 min): 0.017 and 0.015 and 0.011
- OD600 ([3]; MOI = 1, time 45 min): 0.019 and 0.018 and 0.012
- OD600 ([3]; MOI = 1, time 60 min): 0.021 and 0.019 and 0.014
- OD600 ([3]; MOI = 1, time 75 min): 0.021 and 0.020 and 0.015
- OD600 ([3]; MOI = 1, time 90 min): 0.023 and 0.021 and 0.016
- OD600 ([3]; MOI = 1, time 105 min): 0.025 and 0.023 and 0.018
- OD600 ([3]; MOI = 1, time 120 min): 0.027 and 0.025 and 0.019
- OD600 ([3]; MOI = 1, time 135 min): 0.028 and 0.025 and 0.020
- OD600 ([3]; MOI = 1, time 150 min): 0.029 and 0.027 and 0.021
- OD600 ([3]; MOI = 1, time 165 min): 0.030 and 0.028 and 0.022
- OD600 ([3]; MOI = 1, time 180 min): 0.030 and 0.029 and 0.022
- OD600 ([3]; Uninfected, time 30 min): 0.025 and 0.017 (2×)
- OD600 ([3]; Uninfected, time 45 min): 0.032 and 0.023 and 0.024
- OD600 ([3]; Uninfected, time 60 min): 0.034 and 0.033 (2×)
- OD600 ([3]; Uninfected, time 75 min): 0.049 and 0.047 and 0.046
- OD600 ([3]; Uninfected, time 90 min): 0.067 and 0.064 and 0.063
- OD600 ([3]; Uninfected, time 105 min): 0.091 and 0.087 (2×)
- OD600 ([3]; Uninfected, time 120 min): 0.121 and 0.117 and 0.116
- OD600 ([3]; Uninfected, time 135 min): 0.160 and 0.155 and 0.152
- OD600 ([3]; Uninfected, time 150 min): 0.208 and 0.200 and 0.197
- OD600 ([3]; Uninfected, time 165 min): 0.262 and 0.252 and 0.247
- OD600 ([3]; Uninfected, time 180 min): 0.327 and 0.313 and 0.308
- OD600 ([3]; Uninfected, time 195 min): 0.398
- molecular weight of cAA-induced ElTIR-STING oligomer ([4]; SEC-MALS, 0.11 mM cyclic di-nucleotide): 3937–7883 kDa
- oligomeric state induced (in words) ([4]; gel filtration, 2-fold molar excess of cAA, dimeric without ligand): large oligomers
- binding affinity (in words) [5]: micromolar affinity

Molecule: Nc1nc2c(ncn2[C@@H]2O[C@@H]3COP(=O)(O)O[C@H]4[C@@H](O)[C@H](n5cnc6c(=O)[nH]c(N)nc65)O[C@@H]4COP(=O)(O)O[C@H]3[C@H]2O)c(=O)[nH]1 [cGG, 3′3′-cyclic di-GMP]
- major particle size of RiSTING [6]: 40.6 nm
- binding affinity (in words) [7]: nanomolar affinity
- Kd ([7]; 25 °C, 20 mM Tris pH 8.0, 150 mM NaCl, read-out: dissociation constant (Kd)): 0.1 nM
- ΔRFU after 10 mins, Average ([8]; n = 3): 31574 RFU
- ΔRFU after 10 mins (single replicates) ([8]; positive control): 32209 RFU and 31707 RFU and 30806 RFU

Molecule: oligomerization mutant ElTIR-STING^D175R,S179R (natural protein)
- stoichiometry N [9]: 6 and 2
- stoichiometry N [10]: 6 and 2
